How the values were obtained:
human MPs = test: MP tissue factor activity, Factor VIIa-dependent Factor Xa formation; type: cell-based
Description: (§1) Tissue factor activity of monolayers of ECs and MPs was determined (7) after incubation with EMAP II-derived peptides at 37° C. for 4-12 hrs by washing cultures with HEPES (10 MM; pH 7.4), NaCl (137 mM), KCl (4 mM), CaCl2 (3 mM), glucose (10 mM), bovine serum albumin (0.5 mg/ml), and addition of 0.5 ml of the same buffer along with purified human Factor VIIa (1 nM) and Factor X (200 nM) for 45 min at 37° C. Aliquots (0.05 ml) of the reaction mixture (one per well) were withdrawn at 15 min intervals, added to a buffer containing Tris (50 mM; pH 7.9), NaCl (175 mM), EDTA (5 mM) and bovine serum albumin (0.5 mg/ml; 0.05 ml), and the chromogenic substrate Spectrozyme Factor Xa (American Diagnositca, Inc., Greenwich Conn.; 0.01 ml; 2 mM). Cleavage of the substrate was monitored by the change in absorbance at 405 nm (BioKinetics Reader, Winooski, Vt.). Factor Xa concentration was determined by comparison with a standard curve generated with known amounts of purified human Factor Xa. Human, plasma-derived Factors VIIa and X were purified to homogeneity as described (31).
(§2) In Vitro Assays of EC, MP, and PMN Functions-Cell-associated tissue factor was assayed by its functional activity, using purified coagulation proteins, and tissue factor mRNA was detected by PCR. […] The concentration of Factor Xa was determined based on a standard curve generated with purified Factor Xa. […]

human umbilical vein ECs = test: EC tissue factor activity, Factor VIIa-dependent Factor Xa formation; type: cell-based
Description: as §1, §2

mouse footpad = test: Injection of peptides and peptide-albumin conjugates into mouse footpads; type: in vivo; details: unconjugated peptide
Description: Preparation and implantation of peptide-albumin conjugates into mice. Peptide-albumin conjugates (made with either […], […] or […]) (SEQ ID NO. 16) were prepared using glutaraldehyde as described (39). In brief, mouse serum albumin (50 μg) was incubated with glutaraldehyde (450 μg) and the indicated peptide (200 μg) in NaCl (0.1 M) Tris (0.05 N; pH 7.3) for 10 min at room temperature. Excess lysine was added (final concentration, 0.5 M), and the albumin-peptide conjugates were dialyzed exhaustively versus phosphate-buffered saline. BALB/c mice (6-12 weeks) each received an injection into the footpad (7,40-41) of 0.05 ml of a solution of either (i) albumin-peptide conjugate (50 μg, total protein/footpad), (ii) albumin treated with glutaraldehyde in an identical fashion, except that no peptide was present (50 μg, total protein/footpad), (iii) native albumin (50 μg total protein/footpad), or (iv) buffer alone. At the indicated time, animals were sacrificed by humane euthanasia, footpads were harvested, fixed in buffered formalin (10%), decalcified, and embedded in paraffin. Sections were stained with hematoxylin and eosin.

ASRLDLRIGRIVTAKY [residues #6-20 from EMAP II, Cys to Arg substitution at position #15, and a C-terminal Tyr]
Induction of tissue factor activity in MPs (Factor VIIa-dependent Factor X activation) (human MPs): did not demonstrate induction of tissue factor activity | Induction of tissue factor activity in ECs (Factor VIIa-dependent Factor X activation) (human umbilical vein ECs): did not demonstrate induction of tissue factor activity | Inflammatory response to free peptide injected subcutaneously into mice (mouse footpad): at most a transient inflammatory response
